Test results as given in patent US20260132129A1 (Genesis Therapeutics, Inc., priority 2022, published 2026).

Biological target: T1, PI3Kα H1047R (T47D cells) (Homo sapiens, UniProt P42336, H1047R)
T1 construct: endogenous in cells; host or cells: T47D cells
Assay: PI3Kα cellular assay: pAKT HTRF in T47D cells after EGF stimulation
Type: cell-based
Conditions: for IC50: T47D cells (PI3Kα H1047R), pAKT S473 HTRF, 1 hr compound, 20 ng/ml EGF 10 min
Experimental: SKBR3 or T47D cells are seeded in DMEM containing 10% FBS at 25k cells/well into 96-well cell culture format. Cells are incubated overnight at 37° C. in a 5% CO2 incubator and the following day cell media is aspirated, adherent cells are washed 1× with room temperature PBS prior to serum-free media application. Cells are returned to 37° C. 5% CO2 incubator and incubated a further 16 hrs. Compounds are added to serum starved adherent cells with a top dose of 10,000 nM and 3× multiple dose reductions for a minimum dose of 0.5 nM diluted in DMSO. Cell/compound incubation continues for 1 hr in a 37° C., 5% CO2 incubator prior to 10 minute PIK3CA stimulation with 20 ng/ml EGF. Cells treated with 0.1% DMSO and 20 ng/mL EGF are employed as negative control, cells treated with 10 uM Alpelisib and 20 ng/mL EGF are employed as a positive control. After 10 mins, plates are removed from incubator and cells are lysed with buffer and shaking 45 minutes. […] 384 well plate is left overnight at room temperature before reading HTRF on an Envision plate reader.
ND denotes value not determined with that assay for the specified compound; • for T47D (H1047R) selectivity over SKBR3 (WT): A denotes >20-fold; B denotes 20-fold≥value>5-fold; C denotes ≤5-fold. ND denotes value not determined with that assay for the specified compound; and • for T47D pAKT lipophilic efficiency (LiPE): A denotes >4; B denotes 4≥value>2; C denotes ≤2. ND denotes value not determined with that assay for the specified compound.

T1 sequence (P42336 whole entry H1047R): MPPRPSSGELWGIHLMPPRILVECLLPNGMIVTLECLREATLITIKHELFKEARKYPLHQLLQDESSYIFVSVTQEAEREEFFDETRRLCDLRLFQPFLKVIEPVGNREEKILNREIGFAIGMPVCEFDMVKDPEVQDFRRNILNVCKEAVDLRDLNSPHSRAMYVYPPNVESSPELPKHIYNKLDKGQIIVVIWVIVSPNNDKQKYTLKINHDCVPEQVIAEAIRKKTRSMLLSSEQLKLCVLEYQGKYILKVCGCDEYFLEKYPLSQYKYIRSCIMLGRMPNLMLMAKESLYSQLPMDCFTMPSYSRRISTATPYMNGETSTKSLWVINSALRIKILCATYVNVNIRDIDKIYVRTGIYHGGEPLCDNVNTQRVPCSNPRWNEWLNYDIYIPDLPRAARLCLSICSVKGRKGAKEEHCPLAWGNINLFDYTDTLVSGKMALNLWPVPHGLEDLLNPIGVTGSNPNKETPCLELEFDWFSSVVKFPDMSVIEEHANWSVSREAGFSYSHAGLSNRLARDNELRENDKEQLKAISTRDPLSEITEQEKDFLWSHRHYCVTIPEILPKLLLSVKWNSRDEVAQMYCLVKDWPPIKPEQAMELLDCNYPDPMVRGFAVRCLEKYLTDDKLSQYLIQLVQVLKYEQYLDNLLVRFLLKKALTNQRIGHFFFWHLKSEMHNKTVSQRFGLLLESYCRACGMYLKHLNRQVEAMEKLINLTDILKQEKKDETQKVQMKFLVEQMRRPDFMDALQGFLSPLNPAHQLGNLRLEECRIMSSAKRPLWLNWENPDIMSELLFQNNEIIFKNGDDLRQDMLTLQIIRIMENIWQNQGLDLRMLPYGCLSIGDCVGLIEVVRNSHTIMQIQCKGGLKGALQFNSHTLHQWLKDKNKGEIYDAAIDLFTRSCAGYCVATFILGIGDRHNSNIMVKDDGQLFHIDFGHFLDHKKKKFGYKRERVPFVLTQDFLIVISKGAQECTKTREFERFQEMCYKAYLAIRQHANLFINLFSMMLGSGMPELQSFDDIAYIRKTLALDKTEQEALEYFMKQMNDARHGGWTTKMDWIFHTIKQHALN
T1 sequence (P27986 whole entry partner): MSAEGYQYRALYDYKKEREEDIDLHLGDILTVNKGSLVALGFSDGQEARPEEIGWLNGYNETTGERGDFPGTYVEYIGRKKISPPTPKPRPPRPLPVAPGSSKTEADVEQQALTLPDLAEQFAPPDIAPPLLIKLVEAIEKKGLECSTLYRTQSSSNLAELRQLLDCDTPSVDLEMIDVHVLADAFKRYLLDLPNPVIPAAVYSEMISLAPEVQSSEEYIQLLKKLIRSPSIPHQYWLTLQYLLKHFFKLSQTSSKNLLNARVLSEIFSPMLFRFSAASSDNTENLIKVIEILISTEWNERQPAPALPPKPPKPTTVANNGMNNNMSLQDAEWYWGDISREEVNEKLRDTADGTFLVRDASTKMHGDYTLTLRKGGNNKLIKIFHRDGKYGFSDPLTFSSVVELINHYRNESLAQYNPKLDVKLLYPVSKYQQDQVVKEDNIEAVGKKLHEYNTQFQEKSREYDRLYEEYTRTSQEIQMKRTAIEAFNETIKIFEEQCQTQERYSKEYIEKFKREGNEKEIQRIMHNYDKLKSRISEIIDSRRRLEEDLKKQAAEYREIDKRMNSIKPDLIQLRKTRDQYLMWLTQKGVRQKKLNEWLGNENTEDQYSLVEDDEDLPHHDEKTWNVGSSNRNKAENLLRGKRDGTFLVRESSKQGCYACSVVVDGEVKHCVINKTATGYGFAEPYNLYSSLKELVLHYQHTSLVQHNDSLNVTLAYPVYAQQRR

Row | SMILES | IC50 | T47D pAKT S473 HTRF IC50 (H1047R): T47D (H1047R) selectivity over SKBR3 (WT)
1 | CCC(Nc1ccccc1C(=O)O)c1cc(C)cn2c(=O)cc(N3CCOCC3)nc12 (stereo not drawn) [Compound 132] | 500 to 2000 nM | C (C denotes ≤5-fold)
2 | Cc1cc(C(C)Nc2ccccc2S(C)(=O)=O)c2nc(N3CCOCC3)cc(=O)n2c1 (stereo not drawn) [Compound 134] | – | B (B denotes 20-fold≥value>5-fold)
3 | Cc1cc([C@H](C)Nc2ccccc2C(=O)O)c2nc(N3CCS(=O)(=O)CC3)cc(=O)n2c1 [Compound 139] | > 2000 nM | C (C denotes ≤5-fold)
4 | Cc1cc(C(C)Nc2ccccc2C(=O)O)c2nc(N3CCSCC3)cc(=O)n2c1 (stereo not drawn) [Compound 140] | 100 to 500 nM | A (A denotes >20-fold)
5 | Cc1cc(C(C)Nc2ccccc2C(=O)O)c2nc(-c3ccc[nH]c3=O)cc(=O)n2c1 (stereo not drawn) [Compound 144] | > 2000 nM | C (C denotes ≤5-fold)
6 | Cc1cc(C(C)Nc2ccccc2C(=O)O)c2nc(-c3cnc(N)nc3)cc(=O)n2c1 (stereo not drawn) [Compound 145] | 500 to 2000 nM | B (B denotes 20-fold≥value>5-fold)
7 | CCc1cc([C@@H](C)Nc2ccccc2C(=O)O)c2nc(N3CCOCC3)cc(=O)n2c1 [Compound 149] | > 2000 nM | C (C denotes ≤5-fold)
8 | Cc1cc(C(C)Nc2ccccc2S(N)(=O)=O)c2nc(N3CCOCC3)cc(=O)n2c1 (stereo not drawn) [Compound 151] | – | C (C denotes ≤5-fold)
9 | Cc1cc([C@H](C)Nc2ccccc2S(N)(=O)=O)c2nc(N3CCOCC3)cc(=O)n2c1 [Compound 152] | 500 to 2000 nM | B (B denotes 20-fold≥value>5-fold)
10 | Cc1cc(C(C)Nc2ccccc2C)c2nc(N3CCOCC3)cc(=O)n2c1 (stereo not drawn) [Compound 154] | > 2000 nM | C (C denotes ≤5-fold)
11 | Cc1cc([C@H](C)Nc2ccccc2CC(=O)O)c2nc(N3CCOCC3)cc(=O)n2c1 [Compound 158] | > 2000 nM | C (C denotes ≤5-fold)
12 | Cc1cc([C@@H](C)Nc2ccccc2C(=O)O)c2nc(C)cc(=O)n2c1 [Compound 178] | – | C (C denotes ≤5-fold)
13 | CCN1CCN(Cc2ccccc2-c2cc(=O)n3cc(C)cc(C(C)Nc4ccccc4C(=O)O)c3n2)CC1 (stereo not drawn) [Compound 229] | > 2000 nM | C (C denotes ≤5-fold)
14 | Cc1cc(C(C)Nc2ccccc2C(=O)O)c2nc(N3CCSCC3)cc(=O)n2c1 (stereo not drawn) [Compound 239] | > 2000 nM | C (C denotes ≤5-fold)
15 | Cc1cc([C@H](C)Nc2ccccc2C)c2nc(N3CCOCC3)cc(=O)n2c1 [Compound 249] | 500 to 2000 nM | C (C denotes ≤5-fold)
16 | Cc1cc([C@H](C)Nc2ccccc2)c2nc(-c3cc(F)c4c(N)n[nH]c4c3)cc(=O)n2c1 [Compound 258] | > 2000 nM | C (C denotes ≤5-fold)
17 | Cc1cc([C@@H](C)Nc2cc(F)cc(F)c2)c2nc(N3CCOCC3)cc(=O)n2c1 [Compound 263] | 500 to 2000 nM | C (C denotes ≤5-fold)
18 | Cc1cc(C(C)Nc2ccccc2)c2nc(-c3cnc4[nH]nc(-c5ccccc5)c4c3)cc(=O)n2c1 (stereo not drawn) [Compound 265] | > 2000 nM | C (C denotes ≤5-fold)
19 | Cc1cc([C@H](C)Nc2ccccc2)c2nc(-c3cnc4[nH]nc(-c5ccccc5)c4c3)cc(=O)n2c1 [Compound 266] | > 2000 nM | C (C denotes ≤5-fold)
20 | Cc1cc(C(C)NC2=C(CC(=O)O)C=CCC2)c2nc(N3CCSCC3)cc(=O)n2c1 (stereo not drawn) [Compound 284] | > 2000 nM | C (C denotes ≤5-fold)
21 | Cc1cc([C@H](C)Nc2ccccc2CC(=O)O)c2nc(N3CCSCC3)cc(=O)n2c1 [Compound 286] | > 2000 nM | C (C denotes ≤5-fold)
22 | Cc1cc(C(C)Nc2cccc(F)c2C(=O)O)c2nc(N3CCOCC3)cc(=O)n2c1 (stereo not drawn) [Compound 287] | > 2000 nM | C (C denotes ≤5-fold)
23 | Cc1cc(C(C)Nc2cc(F)ccc2C(=O)O)c2nc(N3CCOCC3)cc(=O)n2c1 (stereo not drawn) [Compound 289] | 100 to 500 nM | C (C denotes ≤5-fold)
24 | Cc1cc(C(C)Nc2c(F)cccc2C(=O)O)c2nc(N3CCOCC3)cc(=O)n2c1 (stereo not drawn) [Compound 290] | > 2000 nM | C (C denotes ≤5-fold)

Now from value to compound:

Row | IC50 | T47D pAKT S473 HTRF IC50 (H1047R): T47D (H1047R) selectivity over SKBR3 (WT) | SMILES
25 | > 2000 nM | C (C denotes ≤5-fold) | Cc1cc(C(C)Nc2ccccc2C(=O)O)c2nc(N3CCS(=O)(=O)CC3)cc(=O)n2c1 (stereo not drawn) [Compound 137]
26 | > 2000 nM | C (C denotes ≤5-fold) | Cc1cc([C@@H](C)Nc2ccccc2C(=O)O)c2nc(N3CCS(=O)(=O)CC3)cc(=O)n2c1 [Compound 138]
27 | > 2000 nM | C (C denotes ≤5-fold) | Cc1cc([C@@H](C)Nc2ccccc2C(N)=O)c2nc(N3CCOCC3)cc(=O)n2c1 [Compound 146]
28 | 500 to 2000 nM | B (B denotes 20-fold≥value>5-fold) | Cc1cc([C@H](C)Nc2ccccc2C(N)=O)c2nc(N3CCOCC3)cc(=O)n2c1 [Compound 147]
29 | > 2000 nM | C (C denotes ≤5-fold) | Cc1cc([C@@H](C)Nc2ccccc2C(=O)NS(C)(=O)=O)c2nc(N3CCOCC3)cc(=O)n2c1 [Compound 155]
30 | > 2000 nM | C (C denotes ≤5-fold) | Cc1cc([C@@H](C)Nc2ccccc2CC(=O)O)c2nc(N3CCOCC3)cc(=O)n2c1 [Compound 157]
31 | > 2000 nM | C (C denotes ≤5-fold) | Cc1cc([C@H](C)Nc2ccccc2S(C)(=O)=O)c2nc(N3CCOCC3)cc(=O)n2c1 [Compound 160]
32 | > 2000 nM | C (C denotes ≤5-fold) | Cc1cc(C(C)Nc2cnccc2C(=O)O)c2nc(N3CCOCC3)cc(=O)n2c1 (stereo not drawn) [Compound 194]
33 | < 100 nM | A (A denotes >20-fold) | Cc1cc(C(C)Nc2ccccc2C(=O)O)c2nc(N3CCSCC3)cc(=O)n2c1 (stereo not drawn) [Compound 240]
34 | < 100 nM | C (C denotes ≤5-fold) | Cc1cc([C@@H](C)Nc2ccccc2C)c2nc(N3CCOCC3)cc(=O)n2c1 [Compound 248]
35 | > 2000 nM | C (C denotes ≤5-fold) | Cc1cc([C@H](C)Nc2ccccc2)c2nc(-c3cc(C)c4oc(=O)[nH]c4c3)cc(=O)n2c1 [Compound 252]
36 | > 2000 nM | C (C denotes ≤5-fold) | Cc1cc([C@H](C)Nc2cc(F)cc(F)c2)c2nc(N3CCOCC3)cc(=O)n2c1 [Compound 264]
37 | 100 to 500 nM | A (A denotes >20-fold) | Cc1cc(C(C)Nc2ccccc2C(=O)O)c2nc(-c3ccncc3)cc(=O)n2c1 (stereo not drawn) [Compound 267]
38 | > 2000 nM | C (C denotes ≤5-fold) | CC(Nc1ccccc1C(=O)O)c1cc(C#N)cn2c(=O)cc(N3CCOCC3)nc12 (stereo not drawn) [Compound 273]
39 | < 100 nM | C (C denotes ≤5-fold) | CC(Nc1ccccc1C(=O)O)c1cc(C(N)=O)cn2c(=O)cc(N3CCOCC3)nc12 (stereo not drawn) [Compound 276]
40 | – | C (C denotes ≤5-fold) | Cc1cc(C(C)Nc2ccccc2)c2nc(-c3ccc(N4CC(C)(C)C4)c(C#N)c3)cc(=O)n2c1 (stereo not drawn) [Compound 280]
41 | > 2000 nM | C (C denotes ≤5-fold) | Cc1cc([C@@H](C)NC2=C(CC(=O)O)C=CCC2)c2nc(N3CCSCC3)cc(=O)n2c1 [Compound 285]
42 | 500 to 2000 nM | B (B denotes 20-fold≥value>5-fold) | Cc1cc(C(C)Nc2ccc(F)cc2C(=O)O)c2nc(N3CCOCC3)cc(=O)n2c1 (stereo not drawn) [Compound 288]
43 | > 2000 nM | C (C denotes ≤5-fold) | CC[C@@H](Nc1ccccc1C(=O)O)c1cc(C)cn2c(=O)cc(N3CCOCC3)nc12 [Compound 293]
44 | 500 to 2000 nM | C (C denotes ≤5-fold) | CC[C@H](Nc1ccccc1C(=O)O)c1cc(C)cn2c(=O)cc(N3CCOCC3)nc12 [Compound 294]
